According to US20250206708A1, “AN OXAZIRIDINE PLATFORM FOR TARGETING FUNCTIONAL ALLOSTERIC METHIONINE SITES” (Novartis AG, priority 2022, published 2025):

Experiments:
[1] = system: ribociclib-sensitive cell lines; assay: Cell viability screen across ribociclib-sensitive cell lines; assay type: cell-based; details: 500 μM compound
Experimental: All cells were maintained as a monolayer in exponential growth at 37° C. in a 5% CO2 atmosphere. MCF-7 and HepG2 were maintained in Dulbecco's Modified Eagle Medium (DMEM, Gibco) supplemented with 10% (v/v) fetal bovine serum (FBS, Seradigm). HT-29 and SW-48 were maintained in RPMI 1640 Medium (Gibco) supplemented with 10% FBS.
All cells dosed with oxaziridine were treated using a 2% DMSO/media solution. Oxaziridines were dissolved in DMSO and used the same day as treatment. Media was removed from cells and replaced with fresh media containing oxaziridine in DMSO for a final concentration of 2% DMSO. Control wells were treated with 2% DMSO/media. Cells were incubated at 37° C. in a 5% CO2 atmosphere.
Commercially available Cell Counting Kit-8 Assay (Dojindo) was used to investigate cell viability after treatment with oxaziridines. Cells were plated in 96-well plates (black/clear bottom; Thermo Fisher) and grown to 75% confluency. Media was removed and replaced with media containing 2% DMSO and indicated compound concentration. Cells were allowed to incubate 24 h. To assess viability, media was removed and replaced with 100 μL media containing 10% CCK-8 assay solution. Plates were incubated at 37° C. in a 5% CO2 atmosphere for 1-4 h until an orange color was visible. Viability was quantified via plate reader (monofilter) with absorption at 450 nm. […]

CDK1 = CDK1 (Homo sapiens, UniProt P06493); assay: Shotgun proteomics (MS/MS) modification of purified CDK1; assay type: binding; details: shotgun proteomics on purified protein
CDK4 = assay: Western blot of Rb phosphorylation (S780, S807/811) as cellular CDK4 activity; assay type: cell-based, human; details: serum-synchronized MCF-7 cells, dose of 500 μM
Experimental: Cells were synchronized to G1 via serum starvation. Cells were plated at 50% confluency and allowed to adhere overnight in serum-containing media. The next morning, the cells were gently washed twice with HBSS, and serum-free media was added. Cells were allowed to incubate an additional […], […]. Final cell confluency should remain below 75% for optimal results.
Cells were seeded in full media at 8 e5 cells/well in a 6-well plate. They were then serum-synchronized, as outlined in Example 15, and treated with compound as described previously. Cells were monitored by eye for cell death and harvested once high-dose cells were round but not detached. Cells were transferred to ice and washed twice gently with 1 mL ice-cold PBS. 10 mL of lysis buffer was prepared by dissolved a protease-inhibitor table (Pierce; cat no. A32953) and a phosphatase-inhibitor tablet (Roche; cat no. 4906845001) in 10 mL PBS (1% Triton X-100). Cells were scraped to harvest, transferred to 1.5 mL Eppendorf tubes, and incubated at 4° C. for 30 min on a rotator. Samples were spun at 5000×g for 10 min to clarify lysate. Supernatant was transferred to a new tube and protein concentration quantified via BCA assay (Pierce; cat no. 23225). Samples were normalized to the lowest concentration using chilled lysis buffer. […]

Sequence of CDK1 (P06493 whole entry): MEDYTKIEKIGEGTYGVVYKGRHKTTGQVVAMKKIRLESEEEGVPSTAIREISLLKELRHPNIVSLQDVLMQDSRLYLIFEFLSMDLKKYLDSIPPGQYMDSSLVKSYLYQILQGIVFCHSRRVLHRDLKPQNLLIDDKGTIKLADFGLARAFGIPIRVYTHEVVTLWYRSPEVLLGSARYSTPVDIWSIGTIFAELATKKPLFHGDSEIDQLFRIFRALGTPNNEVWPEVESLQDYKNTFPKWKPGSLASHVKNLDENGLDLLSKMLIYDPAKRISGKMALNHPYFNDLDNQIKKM

modifications on CDK1 (CDK1): No modifications
SMILES: O=C(N1CC2COCC2C1)N1OC1c1ccccc1 (stereo not drawn) [Compound 148]
cell viability of ribociclib-sensitive cell lines [1]: decrease cell viability
signal from pRb antibodies (cellular CDK4 activity) (CDK4): marked decrease in signal
